This note sets out measurements from article PMC6695191 (PLoS Neglected Tropical Diseases, 2019).

The structures appear in SMILES notation. Like-named read-outs stand apart in the source and are kept apart here.

The test system of series [1] is L. donovani intracellular amastigotes. Kind of series: L. donovani intracellular amastigote assay in PMA-differentiated THP-1 macrophages (Giemsa counting). The class given is cell-based, Leishmania donovani. The following applies: for IC50: L. donovani in THP-1 macrophages, 120 h incubation, mean ± SD, n = 2 biological replicates; for Selectivity Index: CC50 THP-1/IC50 intracellular amastigotes. How it is done: (§1) Leishmania donovani axenic cultures (strain MHOM/ET/67/HU3) were maintained in M199 medium (pH 7.4) supplemented with 10% heat-inactivated fetal calf serum (FCS) and grown at 28°C [22]. Human leukemia cells (THP-1 cell line) were maintained in RPMI-1640 (FCS 10%) and grown at 37°C and 5% CO2. Stock solutions of compounds 1–4 were prepared in 100% DMSO at 10 mM and tested in 2-fold serial dilutions (10 concentrations) in 96-well flat-bottom microtiter plates.
In the intracellular amastigote assay, THP-1 cells were seeded at 2 × 10^4/well (RPMI-1640, 100 μL) with phorbol 12-myristate 13-acetate (PMA) at 20 ng/mL for differentiation into macrophages. After incubation for 72 hours (5% CO2, 37°C), medium was aspirated and late-stage promastigotes were added (2 × 10^5/well, 100 μL). After 24 hours of incubation, medium was aspirated to clear extracellular parasites, compounds were added in serial dilutions (100 μL) and the plates were incubated for 120 hours. All plates included negative controls (100% parasite growth) and miltefosine as a positive control. Following incubation, medium was removed and the cells were fixed in methanol and stained with Giemsa. The average number of intracellular amastigotes per THP-1 cell was determined using an inverted microscope and a cell counter. Growth inhibition was expressed as a percentage of the average number of amastigotes per macrophage in the negative control wells. IC50 values were determined as described above for the promastigote assay.

The subject of series [2] is L. donovani promastigotes. The series is described as follows: L. donovani promastigote assay (Alamar Blue). The class given is cell-based, Leishmania donovani. The following applies: 72 h incubation at 28°C, mean ± SD, n = 2 biological replicates. How it is done: as §1
For the promastigote assay, L. donovani cells from axenic cultures in logarithmic growth were seeded at 1 x 10^5/well (M199, 80 μL) and compounds were added in serial dilutions (20 μL). All plates included negative controls (100% parasite growth) and miltefosine as a positive control. After 72 hours of incubation at 28°C, 10 μL of Alamar Blue (12.5 mg resazurin/100 mL distilled water) was added to each well and then the plates were incubated for 3 hours. This indicator of cell viability permeates into viable parasites, where it is reduced by NADPH and NADH enzymes to the highly fluorescent compound resorufin [24]. Following incubation, the plates were read with a microplate fluorometer under an excitation wave length of 536 nm and an emission wave length of 588 nm. […] If the test compound is active against L. donovani, the number of viable parasites is reduced, thus resulting a decrease in fluorescence. Growth inhibition was expressed as a percentage of the fluorescence of the negative control wells. IC50 values were determined using SigmaPlot. Dose-response curves were fitted using log (inhibitor concentration) vs. normalized response (between 0% and 100%) with variable slope, and IC50 values were automatically calculated.
A general note: Resazurin is reduced to fluorescent resorufin, in cell work by metabolically active cells.

The test system of another series is Trichoderma sp. ICBG1100. Kind of series: Antagonist bioassay of compounds against Trichoderma on ISP-2 agar. The following applies: 100 μg compound, 21 days of growth at 28°C. The class given is cell-based. How it is done:
(§2) Each bacterium-fungus and compound-fungal challenge was replicated two times on ISP-2 agar. Bacteria strains were initially screened against Escovopsis sp. ICBG1251. Bacteria were placed in the center of ISP-2 agar Petri dishes and grown alone during 7 days; fungal strains were then point-inoculated near the edge of the culture (microbial strains distant from each other around 3 cm). Two microliters of compounds (100 μg) were placed in the center of Petri dishes and fungal strains were then point-inoculated near the edge of the plate. The positive control used was the miconazole. Challenges were monitored each 7 days and inhibition zone was measure after 21 days. Four different fungal strains were used for testing the pure compounds: Escovopsis sp. ICBG711 (from Trachymyrmex colony), Escovopsis sp. ICBG740 (from Acromyrmex colony), Escovopsis sp. ICBG1251 (from Atta colony) and Trichoderma sp. ICBG1100 (from attine colony).

A further series relates to Escovopsis sp. The series is described as follows: Antagonist bioassay of compounds and fractions against Escovopsis on ISP-2 agar. In kind it is cell-based. The note with it: 100 μg compound, 21 days. How it is done:
as §2

Series [3] is described as follows: Selectivity assay on THP-1 macrophages (Alamar Blue). The following applies: human. The class given is cell-based. How it is done:
Leishmania donovani axenic cultures (strain MHOM/ET/67/HU3) were maintained in M199 medium (pH 7.4) supplemented with 10% heat-inactivated fetal calf serum (FCS) and grown at 28°C [22].
After incubation for 72 hours (5% CO2, 37°C), medium was aspirated, compounds were added in serial dilutions (100 μL) and the plates were incubated for 120 h. All plates included negative controls and doxorubicin as a positive control. Following incubation, 10 μL of Alamar Blue was added to each well and then the plates were incubated for 3 hours. […] Growth inhibition was expressed as a percentage of the fluorescence of the negative control wells. IC50 values were determined as described above for the promastigote and amastigote assays.

[4] abbreviates: THP-1 macrophages, 120 h incubation, mean ± SD, n = 2 biological replicates, read-out: CC50 THP-1.

Regarding `C/C=C(\C)[C@H](O)[C@H](C)/C=C(C)/C=C/C/C(C)=C/Cc1nc(OC)cc(O)c1C` [Compound 1, Mer-A2026B], the IC50 (commonly the concentration that gives 50% inhibition) in series [1] is 49.9 ± 7.01 µM; in series [2] it was 35.9 ± 1.83 µM. Besides, the “Activity against Trichoderma sp.” value with Trichoderma sp. ICBG1100 is “active”. Moreover, the “Antagonist activity against four different Escovopsis strains compared to compounds 2–4” value with Escovopsis sp. is listed as “higher antagonist activity”.
Regarding `C/C=C(\C)[C@H](O)[C@H](C)/C=C(C)/C=C/C/C(C)=C/Cc1nc(OC)c(OC)c(O)c1C` [Compound 2, piericidin-A1], in series [3] (setting [4]), the 50% cytotoxic concentration (CC50) (commonly the concentration that lowers cell viability or growth by half) at 120 h was greater than 64 µM. Also, the figures for the IC50 in series [1] (Leishmania donovani) and in series [2] (Leishmania donovani) were greater than 64 µM and 38.4 ± 4.63 µM, respectively.
For `CO[C@@H]1C[C@@H](C[C@H]2CC[C@H](C)[C@H]([C@@H](C)C(=O)O)O2)O[C@]2(O[C@](C)([C@H]3CC[C@@](C)([C@@H]4O[C@@H]([C@H]5O[C@@](O)(CO)[C@H](C)C[C@@H]5C)C[C@@H]4C)O3)C[C@H]2C)[C@@H]1C` [Compound 3, nigericin], in series [3], the CC50 at 120 h worked out at 11.5 ± 0.68 µM. For the same compound, the “Selectivity Index” value in series [1] was found to be 88.91. The half-maximal inhibitory concentration (IC50) came out at 0.129 ± 0.008 µM in series [1] (Leishmania donovani) and 0.284 ± 0.072 µM in series [2] (Leishmania donovani).
Regarding `CC[C@@H]1C[C@H]2CC[C@H](O2)[C@H](C)C(=O)O[C@@H](C)C[C@@H]2CC[C@@H](O2)[C@@H](C)C(=O)O[C@H](CC)C[C@H]2CC[C@H](O2)[C@H](C)C(=O)O[C@@H](C)C[C@@H]2CC[C@@H](O2)[C@@H](C)C(=O)O1` [Compound 4, dinactin], in series [3] (setting [4]), the CC50 at 120 h stood at 11.8 ± 1.57 µM. Besides, in series [1], the “Selectivity Index” value worked out at 656.11. Moreover, the IC50 in series [1] (Leishmania donovani) stood at 0.018 ± 0.003 µM; in series [2] (Leishmania donovani) it was 0.032 ± 0.005 µM.
For `COc1cccc2c1C(=O)c1c(O)c3c(c(O)c1C2=O)C[C@@](O)(C(=O)CO)C[C@@H]3O[C@H]1C[C@H](N)[C@H](O)[C@H](C)O1` [Doxorubicin, reference compound], the CC50 at 120 h in series [3] (THP-1 cells differentiated into macrophages with PMA, THP-1 macrophages, 120 h incubation, mean ± SD, n = 2 biological replicates, read-out: CC50 THP-1) was 0.571 ± 0.068 µM.
As for `CCCCCCCCCCCCCCCCOP(=O)([O-])OCC[N+](C)(C)C` [Miltefosine, reference compound], the IC50 in series [1] (Leishmania donovani) was 5.8 ± 0.59 µM; in series [2] (Leishmania donovani), 4.74 ± 0.25 µM.
